Assay results taken from patent publication US20030153622A1, “Ophthalmic solution and contact lens solution” (MENICON CO., LTD., priority 2001, published 2003).

Assay: Characteristics of Component B (isoelectric point; pH and osmotic pressure in 0.1 mol/L aqueous solution)
Type: physicochemical
Details: for Isoelectric point: Component B; for Osmotic pressure / pH: Component B in 0.1 mol/L aqueous solution
Description: As the Component A, polyhexamethylene biguamide (PHMB) was used. As the Component B (tonicity adjusting agent), different kinds of the amino-acid-based components having different isoelectric points as indicated in the following TABLE 2 were used. […] As the chelating agent, disodium salt of ethylenediamine tetraacetic acid (EDTA·2Na) was used.

| Structure (SMILES) | Isoelectric point | Osmotic pressure [mOsm/kg] | pH |
| --- | --- | --- | --- |
| N=C(N)NCCC[C@H](N)C(=O)O [arginine] | 10.76 | 100 | 11.20 |
| O=C(O)[C@@H]1C[C@@H](O)CN1 [L-oxyproline] | 5.83 | 105 | 5.87 |
| NCCS(=O)(=O)O [taurine] | 4.50 | 106 | 5.19 |
| Cl.N=C(N)NCCC[C@H](N)C(=O)O [arginine hydrochloride] | 10.76 | 181 | 5.62 |
| Cl.N[C@@H](Cc1c[nH]cn1)C(=O)O [L-histidine hydrochloride] | 7.59 | 105 | 5.80 |
| Cl.NCCCC[C@H](N)C(=O)O [lysine hydrochloride] | 9.74 | 105 | 5.91 |

More lines, now with the values ahead:

| Isoelectric point | Osmotic pressure [mOsm/kg] | pH | Structure (SMILES) |
| --- | --- | --- | --- |
| 6.00 | 104 | 6.05 | CC(N)C(=O)O (racemic) [DL-alanine] |
| 5.68 | 105 | 6.12 | N[C@@H](CO)C(=O)O [L-serine] |
| 6.30 | 104 | 5.90 | O=C(O)[C@@H]1CCCN1 [L-proline] |
| 5.07 | 102 | 5.86 | N[C@@H](CS)C(=O)O [L-cysteine] |
| 5.96 | 103 | 7.83 | CC(C)[C@H](N)C(=O)O [L-valine] |
| 5.48 | 105 | 6.14 | N[C@@H](Cc1ccccc1)C(=O)O [L-phenylalanine] |
| 7.60 | 106 | 7.54 | NCCCCCC(=O)O [ε-aminocaproic acid] |
| 7.30 | 107 | 5.96 | NCCCC(=O)O [γ-aminobutyric acid] |
| 6.16 | 102 | 5.88 | C[C@@H](O)[C@H](N)C(=O)O [L-threonine] |
